Read-outs that look alike come from different tables or passages of the source.
How the values were obtained:
Type in all cases: in vivo
[1] = system: Brown Stink Bug (Euschistus heros); test: B.6 sprayed soybean seedlings (Intacta and BMX-Potencia), adults; settings: for mortality (%) 1 D.A.A / mortality (%) 2 DAA / mortality (%) 6 DAA / mortality (Abbott %) 1 D.A.A / mortality (Abbott %) 2 DAA / mortality (Abbott %) 6 DAA / mortality at 10 ppm: Ginkgolide A 100 ppm a.i, Bilobalide 10 ppm a.i; for efficacy on soybean plants with Bacillus thuringiensis toxin trait (INTACTA) versus without (BMX-POTENCIA): comparison of INTACTA with BMX-POTENCIA; for mortality at 10 ppm: Euschistus heros
Procedure: B.6 Brown Stink Bug (Euschistus heros)
(§1) The active compound is dissolved at the desired concentration in a mixture of 1:1 (vol:vol) distilled water:acetone.
Soybean seedlings of Intacta and BMX-Potencia with one pair of true leaves were sprayed with 2 ml solution using an airbrush. After dry, the plants in small pots were placed inside a transparent plastic cage and infested with 10 adults adult stage individuals. Treated cups were kept at about 25° C. Percent mortality was recorded after 1, 2, and 6 days after application.
• Corrected mortality according to Abbott, W. S., A method of computing the effectiveness of an insecticide, J. Econ. Entomal., 18 (1925) 265-267.

[2] = system: Green Soldier Stink Bug (Nezara viridula); test: B.8 lima bean seed treatment, 2nd instar nymphs; settings: 0.063 mg ai/seed, infested ten days after treatment, read four days after infestation
Procedure: B.8 Green Soldier Stink Bug (Nezara viridula)
Pots (25.8 cm^2) were filled with a 1:1 mixture of sifted (No. 10 sieve) North Carolina loamy sand soil and play sand. Technical material was dissolved in DMSO in a 20 ml scintillation vial. A total application volume of 25 μl of solution was added to a 20 ml vial, ten lima bean seeds (P. lunatus) were added, and the vial was vortexed for 1 minute. Seeds were allowed to dry and planted at a depth of 2 cm later the same day. One seed was planted per pot. Pots were held in the greenhouse and watered daily until infestation.
Ten days after treatment, plants were infested with five 2nd instar nymphs. Plants were covered with organza fabric bags to prevent escape. Plants were held in an environmental chamber (25±2° C., 24 L) and watered as needed.
(§2) Four days after infestation, the number of live nymphs on each plant was recorded, and means were calculated for each treatment. The percent control was calculated as the percent mortality relative to the solvent blank.

[3] = system: Green Soldier Stink Bug (Nezara viridula); test: B.1 soybean pod spray test, 3rd instar nymphs; settings: 120 h, read-out: mortality in comparison with untreated controls
Procedure: B.1 Green Soldier Stink Bug (Nezara viridula)
The active compound is dissolved at the desired concentration in a mixture of 1:1 (vol:vol) distilled water:acetone. Surfactant (Kinetic HV) is added at a rate of 0.01% (vol/vol). The test solution is prepared at the day of use.
Soybean pods were placed in microwavable plastic cups lined with moist filter paper and inoculated with ten 3rd instar N. viridula. Using a hand atomizer, approximately 2 ml solution is sprayed into each cup. Treated cups were kept at about 28-29° C. and relative humidity of about 50-60%. Percent mortality was recorded after 5 days.

[4] = system: Green Soldier Stink Bug (Nezara viridula); test: B.7 soil drench on lima bean plants, 2nd instar nymphs; settings: read-out: mortality in comparison with untreated controls
Procedure: B.7 Green Soldier Stink Bug (Nezara viridula)
Lima Bean (Phaseolus lunatus, ‘Henderson Bush,’ Lot #—VR06650) plants were transplanted at the two true-leaf stage into 25.8 cm^2 pots filled with sifted (No. 10 sieve) North Carolina loamy sand soil. Pots were held in the greenhouse and watered daily until treatment. Three days after transplant, the compounds were dissolved in acetone and then diluted with water for a final concentration of 50% acetone. Treatments were applied as a drench in 1 ml solution per plant. Plants were held in an environmental chamber (25±2° C., 24 L) and watered as needed for the duration of the test.
as §2, with “Three days after treatment, plants were infested with five 2nd instar nymphs. Plants were covered with organza fabric bags to prevent escape. Four” for “Four”

[5] = system: Rice Leaf Bug (Trigonotylus caelestialium); test: B.5 sprayed wheat seedling test, 2nd and 3rd stage nymphs; settings: 120 h, read-out: mortality in comparison with untreated controls
Procedure: B.5 Rice Leaf Bug (Trigonotylus caelestialium)
as §1
Small wheat seedlings in glass tubes were sprayed with 200 microliter/tube by air brush. After drying, ten 2nd and 3rd nymph stage individuals were released in the tube and the tube closed with a screened lid. Treated cups were kept at about 20° C. Percent mortality was recorded after 5 days.

[6] = system: Orchid Thrips (Dichromothrips corbetti); test: B.2 floral-immersion test on orchid petals, adult thrips; settings: 72 h, read-out: mortality in comparison with untreated controls
Procedure: B.2 Orchid Thrips (Dichromothrips corbetti)
Dichromothrips corbetti adults used for bioassay were obtained from a colony maintained continuously under laboratory conditions. For testing purposes, the test compound is diluted in a 1:1 mixture of acetone:water (vol:vol), plus Kinetic HV at a rate of 0.01% v/v.
Thrips potency of each compound was evaluated by using a floral-immersion technique. All petals of individual, intact orchid flowers were dipped into treatment solution and allowed to dry in Petri dishes. Treated petals were placed into individual re-sealable plastic along with about 20 adult thrips. All test arenas were held under continuous light and a temperature of about 28° C. for duration of the assay. After 3 days, the numbers of live thrips were counted on each petal. The percent mortality was recorded 72 hours after treatment.

[7] = system: Forest Shield Bug (Eysarcoris aeneus); test: B.4 peanut and soybean seed spray test, adults; settings: 120 h, read-out: mortality in comparison with untreated controls
Procedure: B.4 Forest Shield Bug (Eysarcoris aeneus)
as §1
Row peanuts and soybean seeds were placed in a plastic cup and inoculated with ten adult stage individuals. Insects, food and inside of container are sprayed with 1 ml solution using an air brush. After drying, a water supply source will be placed in the cup and the cup closed with a screened lid. Treated cups were kept at about 20° C. Percent mortality was recorded after 5 days.

[8] = system: Brown Stink Bug (Euschistus heros); test: B.3 bean pod spray test, adults; settings: 120 h, read-out: mortality in comparison with untreated controls
Procedure: B.3 Brown Stink Bug (Euschistus heros)
as §1
Fresh bean pods were placed in a transparent plastic cup and inoculated with ten adult stage individuals. Insects, food and inside of container are sprayed with 1 ml solution using an air brush. Treated cups were kept at about 25° C. Percent mortality was recorded after 5 days.

## C[C@@H]1C(=O)O[C@H]2C[C@@]34[C@H]5C[C@@H](C(C)(C)C)[C@]36[C@@H](OC(=O)[C@@H]6O)O[C@@]4(C(=O)O5)[C@]21O [Ginkgolide A]
[1]; BMX - POTENCIA soybean, 1 day after application
  mortality (%) 1 D.A.A: 10.0%
[1]; BMX - POTENCIA soybean, 2 days after application
  mortality (%) 2 DAA: 10.0%
[1]; BMX - POTENCIA soybean, 6 days after application
  mortality (%) 6 DAA: 57.5%
[1]; BMX - POTENCIA soybean, corrected according to Abbott, 1 day after application
  mortality (Abbott %) 1 D.A.A: 7.7%
[1]; BMX - POTENCIA soybean, corrected according to Abbott, 2 days after application
  mortality (Abbott %) 2 DAA: 5.3%
[1]; BMX - POTENCIA soybean, corrected according to Abbott, 6 days after application
  mortality (Abbott %) 6 DAA: 46.9%
[1]; INTACTA soybean, 1 day after application
  mortality (%) 1 D.A.A: 12.5%
[1]; INTACTA soybean, 2 days after application
  mortality (%) 2 DAA: 20.0%
[1]; INTACTA soybean, 6 days after application
  mortality (%) 6 DAA: 62.5%
[1]; INTACTA soybean, corrected according to Abbott, 1 day after application
  mortality (Abbott %) 1 D.A.A: 7.9%
[1]; INTACTA soybean, corrected according to Abbott, 2 days after application
  mortality (Abbott %) 2 DAA: 15.8%
[1]; INTACTA soybean, corrected according to Abbott, 6 days after application
  mortality (Abbott %) 6 DAA: 53.1%
[1]
  efficacy on soybean plants with Bacillus thuringiensis toxin trait (INTACTA) versus without (BMX-POTENCIA): higher efficacy
[2]
  mortality in comparison with untreated controls: at least 75%

## CC(C)(C)[C@]1(O)C[C@@H]2OC(=O)C[C@@]23C(=O)O[C@@H]2OC(=O)[C@H](O)[C@]213 [Bilobalide, (3aS,5aR,8aS,9R,10aR)-9-tert-butyl-8,9-dihydroxydihydro-9H-furo[2,3-b]furo[3′,2′;2,3]cyclopenta[1,2-c]furan-2,4,7(3H,8H)-trione]
[3]
  mortality at 10 ppm: ≥ 75%
  mortality at 100 ppm: ≥ 75%
  mortality at 300 ppm: ≥ 75%
  mortality at 500 ppm: ≥ 75%
[4]
  mortality at 300 g/ha: ≥ 75%
[1]; 24 h, read-out: mortality (%) 1 D.A.A, BMX - POTENCIA soybean, 1 day after application
  mortality at 10 ppm: 5%
[1]; 24 h, read-out: mortality (%) 1 D.A.A, INTACTA soybean, 1 day after application
  mortality at 10 ppm: 7.5%
[1]; 24 h, read-out: mortality (Abbott %) 1 D.A.A, BMX - POTENCIA soybean, corrected according to Abbott, 1 day after application
  mortality at 10 ppm: 2.6%
[1]; 24 h, read-out: mortality (Abbott %) 1 D.A.A, INTACTA soybean, corrected according to Abbott, 1 day after application
  mortality at 10 ppm: 2.6%
[1]; 48 h, read-out: mortality (%) 2 DAA, BMX - POTENCIA soybean, 2 days after application
  mortality at 10 ppm: 7.5%
[1]; 48 h, read-out: mortality (%) 2 DAA, INTACTA soybean, 2 days after application
  mortality at 10 ppm: 20%
[1]; 48 h, read-out: mortality (Abbott %) 2 DAA, BMX - POTENCIA soybean, corrected according to Abbott, 2 days after application
  mortality at 10 ppm: 2.6%
[1]; 48 h, read-out: mortality (Abbott %) 2 DAA, INTACTA soybean, corrected according to Abbott, 2 days after application
  mortality at 10 ppm: 15.8%
[1]; 144 h, read-out: mortality (%) 6 DAA, BMX - POTENCIA soybean, 6 days after application
  mortality at 10 ppm: 60%
[1]; 144 h, read-out: mortality (%) 6 DAA, INTACTA soybean, 6 days after application
  mortality at 10 ppm: 72.5%
[1]; 144 h, read-out: mortality (Abbott %) 6 DAA, BMX - POTENCIA soybean, corrected according to Abbott, 6 days after application
  mortality at 10 ppm: 50%
[1]; 144 h, read-out: mortality (Abbott %) 6 DAA, INTACTA soybean, corrected according to Abbott, 6 days after application
  mortality at 10 ppm: 65.6%
[1]
  efficacy on soybean plants with Bacillus thuringiensis toxin trait (INTACTA) versus without (BMX-POTENCIA): higher efficacy
[5]
  mortality at 100 ppm: ≥ 75%
[6]
  mortality at 500 ppm: ≥ 75%
[7]
  mortality at 100 ppm: ≥ 75%
[8]
  mortality at 100 ppm: ≥ 75%
